From ChEMBL document CHEMBL2069240, “Design, solvent free synthesis, and antimicrobial evaluation of 1,4 dihydropyridines” (2012)
In brackets after ≈: the same amount, converted by molar mass.

Assays:
Escherichia coli [1] = experiment: Antibacterial activity against Escherichia coli ATCC 25922; format: functional
Citrobacter koseri = experiment: Antibacterial activity against Citrobacter koseri ATCC 27028; format: functional
Klebsiella pneumoniae [2] = experiment: Antibacterial activity against Klebsiella pneumoniae ATCC 7761; format: functional
Salmonella typhi = experiment: Antibacterial activity against Salmonella typhi ATCC 700931; format: functional, Salmonella enterica subsp. enterica serovar Typhi; conditions: Salmonella enterica
Shigella dysenteriae = experiment: Antibacterial activity against Shigella dysenteriae ATCC 32412; format: functional
Pseudomonas aeruginosa = experiment: Antibacterial activity against Pseudomonas aeruginosa ATCC 27853; format: functional
Staphylococcus aureus = experiment: Antibacterial activity against Staphylococcus aureus ATCC 25923; format: functional
Enterococcus faecalis = experiment: Antibacterial activity against Enterococcus faecalis ATCC 51299; format: functional
Bacillus subtilis = experiment: Antibacterial activity against Bacillus subtilis ATCC 9372; format: functional
Streptococcus pyogenes = experiment: Antibacterial activity against Streptococcus pyogenes ATCC 19615; format: functional
Escherichia coli [3] = experiment: Antibacterial activity against ampicillin-resistant Escherichia coli clinical isolate; format: functional
Klebsiella pneumoniae [4] = experiment: Antibacterial activity against ampicillin-resistant Klebsiella pneumoniae clinical isolate; format: functional
Escherichia coli [5] = experiment: Ratio of ampicillin MIC to compound MIC for ampicillin-resistant Escherichia coli clinical isolate; format: functional
Klebsiella pneumoniae [6] = experiment: Ratio of ampicillin MIC to compound MIC for ampicillin-resistant Klebsiella pneumoniae clinical isolate; format: functional

SMILES	MIC (Escherichia coli [1])	MIC (Citrobacter koseri)	MIC (Klebsiella pneumoniae [2])	MIC (Salmonella typhi)	MIC (Shigella dysenteriae)	MIC (Pseudomonas aeruginosa)	MIC (Staphylococcus aureus)	MIC (Enterococcus faecalis)	MIC (Bacillus subtilis)	MIC (Streptococcus pyogenes)	MIC (Escherichia coli [3])	MIC (Klebsiella pneumoniae [4])	Ratio (Escherichia coli [5])	Ratio (Klebsiella pneumoniae [6])
CCOC(=O)C1=C(C)NC(C)=C(C(=O)OCC)C1c1ccccc1	2500 mg/L (≈ 7590 µM)	2500 mg/L (≈ 7590 µM)	1250 mg/L (≈ 3790 µM)	2500 mg/L (≈ 7590 µM)	1250 mg/L (≈ 3790 µM)	1250 mg/L (≈ 3790 µM)	1250 mg/L (≈ 3790 µM)	2500 mg/L (≈ 7590 µM)	2500 mg/L (≈ 7590 µM)	2500 mg/L (≈ 7590 µM)	125 mg/L (≈ 379 µM)	125 mg/L (≈ 379 µM)	4	4
CCOC(=O)C1=C(C)NC(C)=C(C(=O)OCC)C1c1cccc([N+](=O)[O-])c1	2500 mg/L (≈ 6680 µM)	2500 mg/L (≈ 6680 µM)	2500 mg/L (≈ 6680 µM)	1250 mg/L (≈ 3340 µM)	2500 mg/L (≈ 6680 µM)	5000 mg/L (≈ 13400 µM)	1250 mg/L (≈ 3340 µM)	2500 mg/L (≈ 6680 µM)	2500 mg/L (≈ 6680 µM)	2500 mg/L (≈ 6680 µM)	125 mg/L (≈ 334 µM)	125 mg/L (≈ 334 µM)	4	4
CCOC(=O)C1=C(C)N=C(C)/C(=C(/O)OCC)C1	1250 mg/L (≈ 4930 µM)	1250 mg/L (≈ 4930 µM)	1250 mg/L (≈ 4930 µM)	2500 mg/L (≈ 9870 µM)	1250 mg/L (≈ 4930 µM)	1250 mg/L (≈ 4930 µM)	1250 mg/L (≈ 4930 µM)	1250 mg/L (≈ 4930 µM)	1250 mg/L (≈ 4930 µM)	1250 mg/L (≈ 4930 µM)	125 mg/L (≈ 493 µM)	62.5 mg/L (≈ 247 µM)	4	4
CCOC(=O)C1=C(C)NC(C)=C(C(=O)OCC)C1c1ccc(Cl)cc1	125 mg/L (≈ 344 µM)	125 mg/L (≈ 344 µM)	125 mg/L (≈ 344 µM)	500 mg/L (≈ 1370 µM)	500 mg/L (≈ 1370 µM)	500 mg/L (≈ 1370 µM)	125 mg/L (≈ 344 µM)	125 mg/L (≈ 344 µM)	500 mg/L (≈ 1370 µM)	125 mg/L (≈ 344 µM)	62.5 mg/L (≈ 172 µM)	31.2 mg/L (≈ 85.9 µM)	4	4
CCOC(=O)C1=C(C)NC(C)=C(C(=O)OCC)C1c1ccccc1O	250 mg/L (≈ 724 µM)	125 mg/L (≈ 362 µM)	125 mg/L (≈ 362 µM)	500 mg/L (≈ 1450 µM)	250 mg/L (≈ 724 µM)	250 mg/L (≈ 724 µM)	250 mg/L (≈ 724 µM)	250 mg/L (≈ 724 µM)	250 mg/L (≈ 724 µM)	250 mg/L (≈ 724 µM)	62.5 mg/L (≈ 181 µM)	31.2 mg/L (≈ 90.5 µM)	4	4
CCOC(=O)C1=C(C)NC(C)=C(C(=O)OCC)C1c1ccc(O)cc1	2500 mg/L (≈ 7240 µM)	2500 mg/L (≈ 7240 µM)	2500 mg/L (≈ 7240 µM)	5000 mg/L (≈ 14500 µM)	5000 mg/L (≈ 14500 µM)	5000 mg/L (≈ 14500 µM)	2500 mg/L (≈ 7240 µM)	2500 mg/L (≈ 7240 µM)	2500 mg/L (≈ 7240 µM)	2500 mg/L (≈ 7240 µM)	125 mg/L (≈ 362 µM)	125 mg/L (≈ 362 µM)	4	4
CCOC(=O)C1=C(C)NC(C)=C(C(=O)OCC)C1c1ccc(OC)cc1	1250 mg/L (≈ 3480 µM)	1250 mg/L (≈ 3480 µM)	1250 mg/L (≈ 3480 µM)	5000 mg/L (≈ 13900 µM)	2500 mg/L (≈ 6960 µM)	5000 mg/L (≈ 13900 µM)	2500 mg/L (≈ 6960 µM)	2500 mg/L (≈ 6960 µM)	1250 mg/L (≈ 3480 µM)	2500 mg/L (≈ 6960 µM)	62.5 mg/L (≈ 174 µM)	125 mg/L (≈ 348 µM)	4	4
CCOC(=O)C1=C(C)NC(C)=C(C(=O)OCC)C1c1ccc(OC)c(OC)c1	2500 mg/L (≈ 6420 µM)	2500 mg/L (≈ 6420 µM)	2500 mg/L (≈ 6420 µM)	1250 mg/L (≈ 3210 µM)	1250 mg/L (≈ 3210 µM)	1250 mg/L (≈ 3210 µM)	1250 mg/L (≈ 3210 µM)	1250 mg/L (≈ 3210 µM)	125 mg/L (≈ 321 µM)	1250 mg/L (≈ 3210 µM)	125 mg/L (≈ 321 µM)	125 mg/L (≈ 321 µM)	4	4
CCOC(=O)C1=C(C)NC(C)=C(C(=O)OCC)C1c1ccccc1Cl	250 mg/L (≈ 687 µM)	250 mg/L (≈ 687 µM)	250 mg/L (≈ 687 µM)	250 mg/L (≈ 687 µM)	250 mg/L (≈ 687 µM)	250 mg/L (≈ 687 µM)	125 mg/L (≈ 344 µM)	125 mg/L (≈ 344 µM)	250 mg/L (≈ 687 µM)	125 mg/L (≈ 344 µM)	125 mg/L (≈ 344 µM)	125 mg/L (≈ 344 µM)	4	4
CCOC(=O)C1=C(C)NC(C)=C(C(=O)OCC)C1c1cccc(O)c1	500 mg/L (≈ 1450 µM)	500 mg/L (≈ 1450 µM)	500 mg/L (≈ 1450 µM)	500 mg/L (≈ 1450 µM)	125 mg/L (≈ 362 µM)	1250 mg/L (≈ 3620 µM)	1250 mg/L (≈ 3620 µM)	1250 mg/L (≈ 3620 µM)	1250 mg/L (≈ 3620 µM)	1250 mg/L (≈ 3620 µM)	125 mg/L (≈ 362 µM)	62.5 mg/L (≈ 181 µM)	4	4
CCOC(=O)C1=C(C)NC(C)=C(C(=O)OCC)C1c1ccc(O)c(OC)c1	125 mg/L (≈ 333 µM)	125 mg/L (≈ 333 µM)	125 mg/L (≈ 333 µM)	125 mg/L (≈ 333 µM)	125 mg/L (≈ 333 µM)	125 mg/L (≈ 333 µM)	125 mg/L (≈ 333 µM)	125 mg/L (≈ 333 µM)	125 mg/L (≈ 333 µM)	125 mg/L (≈ 333 µM)	31.2 mg/L (≈ 83.2 µM)	31.2 mg/L (≈ 83.2 µM)	4	4
CCOC(=O)C1=C(C)NC(C)=C(C(=O)OCC)C1c1cc(OC)c(OC)c(OC)c1	2500 mg/L (≈ 5960 µM)	2500 mg/L (≈ 5960 µM)	2500 mg/L (≈ 5960 µM)	1250 mg/L (≈ 2980 µM)	1250 mg/L (≈ 2980 µM)	2500 mg/L (≈ 5960 µM)	1250 mg/L (≈ 2980 µM)	1250 mg/L (≈ 2980 µM)	1250 mg/L (≈ 2980 µM)	2500 mg/L (≈ 5960 µM)	250 mg/L (≈ 596 µM)	250 mg/L (≈ 596 µM)	4	4
CCOC(=O)C1=C(C)NC(C)=C(C(=O)OCC)C1c1cc(OC)ccc1OC	500 mg/L (≈ 1280 µM)	250 mg/L (≈ 642 µM)	250 mg/L (≈ 642 µM)	500 mg/L (≈ 1280 µM)	500 mg/L (≈ 1280 µM)	2500 mg/L (≈ 6420 µM)	250 mg/L (≈ 642 µM)	250 mg/L (≈ 642 µM)	2500 mg/L (≈ 6420 µM)	250 mg/L (≈ 642 µM)	250 mg/L (≈ 642 µM)	125 mg/L (≈ 321 µM)	4	4
CC1(C)S[C@@H]2[C@H](NC(=O)[C@H](N)c3ccccc3)C(=O)N2[C@H]1C(=O)O [AMPICILLIN]	200 mg/L (≈ 572 µM)	25 mg/L (≈ 71.5 µM)	500 mg/L (≈ 1430 µM)	5 mg/L (≈ 14.3 µM)	50 mg/L (≈ 143 µM)	2 mg/L (≈ 5.72 µM)	10 mg/L (≈ 28.6 µM)	15 mg/L (≈ 42.9 µM)	25 mg/L (≈ 71.5 µM)	0.06 mg/L (≈ 0.172 µM)	> 2000 mg/L	> 2000 mg/L	–	–
